Assay in the first data set: not given
Regarding `CC(=O)Oc1ccccc1C(=O)Nc1ncc([N+](=O)[O-])s1`, the logP worked out at 2.41. On to `O=C(Nc1ncc([N+](=O)[O-])s1)c1ccc(F)cc1`, for which the logP was found to be 3.12. Still for that read-out and setting: the figure for `O=C(Nc1ncc([N+](=O)[O-])s1)c1cc(Cl)ccc1Cl` is 3.57; for `O=C(Nc1ncc([N+](=O)[O-])s1)c1c(F)cccc1F` it is 2.44. Still for that read-out and setting: the figure for `O=C(Nc1ncc([N+](=O)[O-])s1)c1c(F)cccc1Cl` is 3; for `O=C(Nc1ncc([N+](=O)[O-])s1)c1ccccc1F` it is 2.71.

A short description of a further data set: method code SF-AS, from DOI: 10.1002/(sici)1521-3838(199801)17:01<01::aid-qsar1>3.0.co;2-a.
`O=C(Nc1ncc([N+](=O)[O-])s1)c1ccc(Cl)cc1Cl` displayed a logP of 3.62. Still for that read-out and setting: the figure for `O=C(Nc1ncc([N+](=O)[O-])s1)c1ccccc1` is 2.97; for `O=C(Nc1ncc([N+](=O)[O-])s1)c1cc(Cl)cc(Cl)c1` it is 4.14.

The molecule `O=C(Nc1ncc([N+](=O)[O-])s1)c1ccc(Br)cc1` yielded a logP of 3.58.

Regarding `O=C(Nc1ncc([N+](=O)[O-])s1)c1cccc(Cl)c1`, the logP worked out at 3.61. Turning to `O=C(Nc1ncc([N+](=O)[O-])s1)c1cc(Br)ccc1Br`, the logP came to 3.75.

For the molecule `O=C(Nc1ncc([N+](=O)[O-])s1)c1ccc(Cl)c(Cl)c1`, the lipophilicity (logP) worked out at 4.14. Regarding `O=C(Nc1ncc([N+](=O)[O-])s1)c1ccccc1Br`, the logP is 3.09. On the same count and under the same terms, the figure for `O=C(Nc1ncc([N+](=O)[O-])s1)c1cccc(Br)c1` is 3.8.

The term logP denotes the decadic logarithm of the partition coefficient of the neutral form, usually between octanol and water. A lower logP goes with lower lipophilicity.
